For the assay, the system named is P. falciparum 3D7 growth, pLDH absorbance. The assay can be described thus: P. falciparum 3D7 growth inhibition, dose response, strain 3D7 (AID 2305).

For orientation: pIC50 means the negative decadic logarithm of the IC50, by convention in mol/L. Read a low pIC50 as a large IC50.

pIC50: −log10 of the molar value.

Molecule `CNCC(O)c1cc(Cl)c(Cl)cc1C` (stereo not drawn) gave a pIC50 of 6.04.
In the case of `CC(=O)Nc1ccc(CN2CCC(NC(=O)c3ccc(-c4cccc(OC(C)C)c4)s3)CC2)cc1`, the pIC50 was 5.84.
In the case of `CCOC(=O)C1=C(C)NC(Cn2ccnc2)=C(C(=O)OCC)C1c1ccc(C(C)(C)C)cc1` (stereo not drawn) it was 6.09; in that of `Cc1cc(=O)c(-c2ccc(Sc3ccc(Cl)cc3)cc2)c(C)[nH]1`, 6.01.
Molecule `CS(=O)(=O)N1CC2(CCN(CCC(NC(=O)NCc3ccc(Cl)c(Cl)c3)c3ccc(Cl)c(Cl)c3)CC2)c2ccccc21` (stereo not drawn) showed a pIC50 of 6.10.
In turn, `O=C(Nc1ccccc1Br)c1cn(-c2ccccc2)nc1-c1cccc([N+](=O)[O-])c1` gave a pIC50 of 5.88.
As to `CC[C@H]1CN(CCCC(=O)c2ccccc2)CC[C@H]1CCCc1ccnc2ccc(OC(=O)c3ccccc3)cc12`, the negative-log IC50 (pIC50) is 6.08.
In the case of `O=C(COc1ccccc1)N(Cc1ccc(-c2ccc(CNC3Cc4ccccc4C3)cc2)cc1)C1CCNCC1` it was 5.99; in that of `COc1ccc(Br)cc1/C=C/C(=O)Nc1ccc(C2CCN(C)CC2)cc1`, 6.30; in that of `CS(=O)(=O)c1ccc(CNCc2ccc(-c3ccc(-c4nc5ccc(C(F)(F)F)cc5[nH]4)cc3)cc2)cc1`, 6.15.
For `O=C(NC1CCN(CC2(c3ccc(Cl)cc3)CCC2)CC1)c1cscn1`, the pIC50 is 6.28.
In the case of `Cc1ccccc1C1CCN(C2CCC(NC(=O)c3ccc(-c4ccccn4)s3)CC2)CC1` (stereo not drawn) it was 5.93.
In the case of `C=CCOC(=O)N1CCC(CNCc2cccc(-c3cccc(-c4nc5c(C)cccc5[nH]4)c3)c2)C1` (stereo not drawn) it was 6.96.
The molecule `Cc1cc(NC(=O)c2ccco2)ccc1OC1CCN(Cc2ccc(F)cc2)CC1` gave a negative-log IC50 (pIC50) of 6.23.
The molecule `Cc1ccc(Cn2nc(Cl)c(N3CCNCC3)cc2=O)cc1NC(=O)Nc1ccc(-c2ccccc2)cc1` showed a negative-log IC50 (pIC50) of 6.17.
As to `CN1CCCC(CN2CCN(Cc3ccc(-c4cccc(-c5nc6ccc(F)cc6[nH]5)c4)cc3)CC2)C1` (stereo not drawn), the pIC50 is 6.74.
`O=C1CC(C(=O)Nc2cccc(-c3cccc(-c4nc5ccccc5[nH]4)c3)c2)c2ccccc2N1` (stereo not drawn) showed a pIC50 of 6.01.
Take `CN1CCCC(CN2CCN(Cc3ccc(-c4ccc(-c5nc6ccc(F)cc6[nH]5)s4)cc3)CC2)C1` (stereo not drawn): the negative-log IC50 (pIC50) was 6.89.
`Nc1cc(-c2cc3c(OCc4ccccc4)cccc3[nH]2)ccn1` showed a negative logarithm of the IC50 (pIC50) of 5.92.
In the case of `Nc1nccc(-c2ccc3c(/C=C/c4ccccc4)cnc(N)c3c2)n1` it was 6.21.
With `CCc1ccccc1N1CCN(CCCC(=O)c2ccc(NC(=O)c3ccc(Cl)cc3)cc2)CC1`, the pIC50 is 5.88.
`CCOc1ccc(-c2nonc2NC(=O)c2cccs2)cc1OCC` gave a pIC50 of 6.12.
In the case of `COc1ccc2c(NN=Cc3cccc([N+](=O)[O-])c3)cc(C)nc2c1` it was 6.25; in that of `COc1ccc(Nc2nc(NN=Cc3cc(Br)c(O)cc3O)nc(Nc3ccc([N+](=O)[O-])cc3)n2)cc1`, 6.05.
In the case of `c1ccc(Oc2ccc(Nc3ccnc(Nc4ccc(CN5CCOCC5)cc4)n3)cc2)cc1` it was 6.03.
In the case of `O=S(=O)(c1ccc(Cl)cc1Cl)N1CCCCC(c2ccc(C(F)(F)F)cc2)=N1` it was 6.80; in that of `COc1cc2c(cc1C(F)(F)F)N(C(=O)Nc1cc(OC(F)(F)F)cc(-c3cccnc3)c1)CC2`, 7.40.
`O=S(=O)(Nc1cccc(CCN2CCC(N3CCCCC3)CC2)c1)c1cccc(C(F)(F)F)c1` had a pIC50 of 6.01.
With `CN(c1ccc(NC(=O)CCOc2ccccc2)cc1)C1CCN(Cc2cccc(O)c2)CC1`, the pIC50 is 5.88.
Regarding `Cc1cccc2[nH]c(-c3ccc(-c4cccc(NC(=O)Nc5ccc(Cl)cc5)c4)s3)nc12`, the negative logarithm of the IC50 (pIC50) was 6.28.
`COc1cccc(-c2ccc(C(=O)NCC3CCCN(Cc4cccc(C(F)(F)F)c4)C3)s2)c1` (stereo not drawn) gave a pIC50 of 5.94.
In the case of `Cc1cc(Cl)c(Cl)cc1NC(=O)Nc1cccc(C(F)(F)F)c1` it was 6.06; in that of `CCCCCCCC1CC(CC(=O)Nc2ccnc3ccc(OC)cc23)CN1` (stereo not drawn), 6.29; in that of `Cc1noc(C)c1-c1cccc(CNCc2ccc(-c3cccc(-c4nc5ccc(F)cc5[nH]4)c3)cc2)c1`, 6.26.
In the case of `CCNc1cc(C(=O)N[C@@H](Cc2ccccc2)[C@H](O)CNC(C)(C)Cc2cccc(OC)c2)cc(N2CCCC2=O)c1` it was 6.15; in that of `COc1ccc(C2N=C(N)N=C(N)N2OCc2ccccc2)cc1OC` (stereo not drawn), 6.89.
Regarding `Cc1c(CNCCCNc2cc(=O)c3ccccc3[nH]2)sc(/C=N/O)c1Br`, the pIC50 is 5.97.
In the case of `Brc1ccsc1-c1nc(NCCC(c2ccccc2)c2ccccc2)no1` it was 5.97; in that of `Cc1[nH]c(C)c(-c2ccc(Br)cc2)c(=O)c1Br`, 6.19.
Molecule `C=CCOc1ccc(Cc2cnc(N)nc2N)cc1CCC` had a pIC50 of 5.99.
`Cc1cccc2[nH]c(-c3ccc(-c4ccc(CN5CCN(CCO)CC5)cc4)cc3)nc12` gave a negative logarithm of the IC50 (pIC50) of 6.22.
In the case of `O=C(/C=C/c1cccc(Br)c1)NCCCCCN1CCC(c2c[nH]c3ccccc23)CC1` it was 6.20.
`Cc1cc(=O)c(-c2ccc(OCCSc3ccc(C(F)(F)F)cn3)cc2)c(C)[nH]1` had a pIC50 of 6.28.
`O=C(/C=C/c1ccc(F)c(Br)c1)NCCCCCN1CCC(c2c[nH]c3ccccc23)CC1`: the negative-log IC50 (pIC50) is 6.07.
The molecule `CNc1ccc(CNCc2ccc(-c3ccc(-c4nc5c(C)cccc5[nH]4)s3)cc2)cc1` gave a negative logarithm of the IC50 (pIC50) of 6.18.
In the case of `CN(C)c1cc(NN=Cc2cc(Cl)ccc2O)nc(N(C)C)n1` it was 6.15; in that of `CCN(CC)CCNC(=O)c1ccc(NC(=O)c2oc3c(Cl)cccc3c2C)cc1`, 6.15.
In turn, `CC(=O)Oc1c(C2CCN(CCCCNC(=O)c3ccc(-c4ccc(C#N)cc4)cc3)CC2)ccc2c1CCCC2` gave a pIC50 of 5.95.
In the case of `CSc1sc(NC(=O)Nc2cccc(C(F)(F)F)c2)cc1C#N` it was 6.04; in that of `Cc1ccc2c(Cc3cnc(N)nc3N)cc(C)c(N)c2n1`, 5.85.
In the case of `N#Cc1ccc(N2CCN(Cc3cccc(-c4ccc(-c5nc6ccc(C(F)(F)F)cc6[nH]5)s4)c3)CC2)nc1` it was 5.98; in that of `Cc1cccn2c(=O)c3cc(C(=O)NCCN4CCOCC4)c(=N)n(CCc4ccccc4)c3nc12`, 6.33.
In the case of `CS(=O)(=O)c1ccc(CNCc2ccc(-c3cccc(-c4nc5ccccc5[nH]4)c3)cc2)cc1` it was 6.48; in that of `CCN(CC)CCN(Cc1ccc(-c2ccc(C(F)(F)F)cc2)cc1)C(=O)Cn1c(CCc2cccc(F)c2F)cc(=O)c2c1CCCC2`, 6.06; in that of `COC(=O)c1ccc(CC(C)NCC(O)c2cccc(SC(F)(F)F)c2)cc1` (stereo not drawn), 6.05.
`CC(C)(C)Oc1ccc(NC(=O)c2ccccc2O)cc1`: the negative logarithm of the IC50 (pIC50) is 6.00.
For `COc1c(C2CCN(CCCCNC(=O)c3oc(-c4ccc(Cl)cc4)cc3CO)CC2)ccc2c1CCCC2`, the pIC50 was 6.43.
In the case of `CC(C)(C)c1ccc(CNCC(C)(C)c2nc(-c3ccc(Cl)c(O)c3)c(-c3ccnc(N)n3)[nH]2)cc1` it was 6.15; in that of `CC(C)N(Cc1ccc(-c2ccc(C(F)(F)F)cc2)cc1)C(=O)Cn1c(CCc2cccc(F)c2F)cc(=O)c2ccc(CCCN3CCCCC3)cc21`, 6.13; in that of `COc1ccc(CN=C(N)Nc2nc(-c3ccc(OCCCn4ccnc4)cc3)cs2)cc1`, 6.41.
In the case of `CC(C)(C)OC(=O)N1CCC(C2CCN(C(=O)OC(C)(C)C)CC2)CC1` it was 5.94; in that of `CNC(=S)NN=C(C)c1ccccn1`, 6.57.
In the case of `COc1ccc(-c2cccc(NC(=O)c3ccc(Cl)cc3)c2)cc1CN(C)CCN(C)C` it was 6.11; in that of `Cc1cccc2[nH]c(-c3cccc(-c4ccc(NC(=O)COc5ccccc5C(N)=O)cc4)c3)nc12`, 6.05.
In turn, `NC(CC1CC(=O)N1CC(=O)O)C(=O)O` (stereo not drawn) showed a negative-log IC50 (pIC50) of 6.80.
In the case of `O=C(/C=C/c1ccc(Cl)c(Cl)c1)NC[C@@H]1CCC[C@H](CN2CCC(c3c[nH]c4ccccc34)CC2)C1` it was 6.14; in that of `Cc1cc(NCC(C)C)c2[nH]nc(-c3ccccc3)c2n1`, 6.13; in that of `NCCCOc1cnc(-c2ccccc2)c2nc(-c3nonc3N)n(CCc3ccccc3)c12`, 5.90.
In turn, `CC[C@H]1CN(CCCn2c3ccccc3c3ccccc32)[C@@H](CC)CN1` had a pIC50 of 5.97.
In the case of `N#Cc1ccc(CN2CCC(Oc3ccc(NC(=O)c4ccco4)cc3Cl)CC2)cc1` it was 6.42.
In turn, `CN1CCN(c2cc(NC(=O)c3ccc(-c4ccc(Cl)cc4)cc3)ccc2Cl)CC1` had a pIC50 of 6.21.
In the case of `Cc1ccccc1Nc1cc(Nc2ccccc2C)c2ccccc2n1` it was 6.11; in that of `O=C(/C=C/c1ccc(Cl)c(Cl)c1)NCCCCCN1C2CCC1CC(c1c[nH]c3ccccc13)C2` (stereo not drawn), 6.08; in that of `Cc1[nH]c(C)c(-c2ccc(Oc3ccc(Cl)c(Cl)c3)cc2)c(=O)c1Br`, 6.52.
In the case of `COc1ccc2c(c1)[nH]c1c(C=Cc3ccccc3)nccc12` it was 6.42.
In the case of `CCCc1cc(Cc2cnc(N)nc2N)cc(CCC)c1O` it was 6.55; in that of `Oc1ccc(CCNCCCCNCCc2ccc(Cl)cc2)cc1O`, 6.08.
`O=C(Cc1ccc([N+](=O)[O-])cc1)N1CCc2cc3nccc(N4CCN5CCC[C@H]5C4)c3cc21` gave a pIC50 of 6.08.
In the case of `CC(=O)Nc1ccc(CN2CCC(NC(=O)c3ccc(-c4cccc(Cl)c4)s3)CC2)cc1` it was 6.10; in that of `Cc1cccc2[nH]c(-c3ccc(-c4ccc(CN5CCN(CCC#N)CC5)cc4)cc3)nc12`, 6.07.
In the case of `CN1CCC(N2CCN(Cc3ccc(-c4cccc(-c5nc6ccccc6[nH]5)c4)cc3)CC2)CC1` it was 6.85.
In the case of `CCOC(=O)c1c(SCc2cccc(F)c2F)[nH]c2ccccc2c1=O` it was 6.19.
Consider `Cc1ccccc1Nc1nc(Nc2ccccc2)c2ccccc2n1`, for which the pIC50 is 6.00.
Consider `CN1CC=C(c2c[nH]c3ccc(-c4ccccc4)cc23)CC1`, for which the pIC50 was 6.11.
`CO/C(=C\C=C\c1cc2cc(Cl)c(Cl)cc2[nH]1)C(=O)NCCCN1CCN(c2cccc(CCCO)c2)CC1`: the pIC50 was 5.99.
In the case of `COC(=O)[C@@H](NC(=O)[C@@H](Nc1ccc(C#N)c2ccccc12)C(C)(C)C)c1ccc(O)cc1` it was 6.11; in that of `CCc1cc2c(=O)c(-c3nc(C)cs3)c(N)oc2c(CN2CCCCC2)c1O`, 6.18.
In the case of `CC(CN1CCN(C)CC1)C(=O)Nc1ccc(-c2ccc(-c3nc4ccc(C(F)(F)F)cc4[nH]3)cc2)cc1` (stereo not drawn) it was 6.39.

(Values after PubChem BioAssay AID2305 (GlaxoSmithKline (GSK), 2010).)
